Measured values reported in EP0061056A1, “5,6-Dimethylpyrrolo (2,3-b) pyridines, process for their preparation and their use as medicaments” (Troponwerke GmbH & Co. KG, priority 1981, dated 1982).
Like-named read-outs stand apart in the source and are kept apart here.

Test system: Kaolinödem der Rattenpfote
Assay: Kaolin-induced rat paw oedema (inhibition of inflammation)
Assay type: in vivo, Ratte
Conditions: kaolin oedema of the rat paw
Method: Die tierexperimentelle Prüfung der erfindungsgemäßen Verbindungen ergab, daß ein Teil dieser Substanzen sedative und antikonvulsive Eigenschaften besitzt. Darüber hinaus führen sie auch zu einer Hemmung der Entzündung, gemessen an der Beeinflussen des Pfotenödems der Ratte nach Kaolininjektion.
Bei oraler Applikation zeigen die erfindungsgemäßen Verbindungen eine signifikante entzündungshemmende Wirkung am Kaolinödem der Rattenpfote nach Gaben von 25 mg/kg. Bei intramuskulärer Applikation zeigen die Verbindungen bereits bei Dosierung von 10 mg/kg eine deutliche Hemmung der Entzündung. Für die Verbindung des Beispiels 1 beträgt die DE 50 bei oraler Applikation 68 mg/kg und die DE50 bei intramuskulärer Applikation 0,9 mg/kg.

Cc1c(C)n(-c2ccccc2)c2nccc(N)c12 [Beispiel 1, 4-Amino-5,6-dimethyl-7-phenyl-pyrrolo[2,3-b]-7-pyridin]
ED50 (im, intramuscular application, read-out: DE50 (the source's name)): 0.9 mg/kg
ED50 (oral application, read-out: DE 50 (the source's name)): 68 mg/kg
